Legend:
Type in all cases: in vivo
Amaranthus retroflexus [1] = experiment: Pre-emergence herbicidal action, AMARE; parameters: key to Herbicidal action against AMARE: % activity: 100 = plants have died, 0 = like control plants; conditions: for herbicidal action AMARE: dosage 320 g/ha
From the text: (§1) 1. Pre-Emergence Herbicidal Action Against Harmful Plants Seeds of monocotyledonous and dicotyledonous weed plants and crop plants are laid out in sandy loam soil in wood-fiber pots and covered with soil. The compounds of the invention, formulated in the form of wettable powders (WP) or as emulsion concentrates (EC), are then applied to the surface of the covering soil in the form of an aqueous suspension or emulsion at a water application rate equating to 600 to 800 l/ha, with addition of 0.2% wetting agent. After the treatment, the pots are placed in a greenhouse and kept under good growth conditions for the trial plants. The damage to the test plants is scored visually after a test period of 3 weeks by comparison with untreated controls (herbicidal activity in percent (%): 100% activity=the plants have died, 0% activity=like control plants). […] The tables below illustrate, in an exemplary manner, the […] herbicidal action of the compounds according to the invention, the herbicidal activity being stated in percent. [table] In the experiments that follow, herbicidal action of numerous inventive compounds and the known compounds that are structurally closest from D1 (WO 2012/028579 A1) and D2 (WO 2018/202535 A1) were compared under the above-specified conditions by the pre-emergence and post-emergence method. The example numbers given in the tables relate to the compounds disclosed in the respective documents. In addition to the compounds disclosed in D1 and D2, the following compounds V-1 to V-14 that are encompassed by D1 or D2 but are not compounds specified therein were used in the comparative experiments: • V-1: 2-(methylsulfanyl)-3-(methylsulfinyl)-N-(1-methyl-1H-tetrazol-5-yl)-4-(trifluoromethyl)benzamide • V-2: 2-(methylsulfanyl)-3-(methylsulfonyl)-N-(1-methyl-1H-tetrazol-5-yl)-4-(trifluoromethyl)benzamide • V-3: 2,3-bis(ethylsulfanyl)-N-(1-methyl-1H-tetrazol-5-yl)-4-(trifluoromethyl)benzamide • V-4: 2-chloro-3-(ethylsulfanyl)-N-(1-methyl-1H-tetrazol-5-yl)-4-(trifluoromethyl)benzamide • V-5: 2-chloro-4-iodo-3-(methylsulfanyl)-N-(1-methyl-1H-tetrazol-5-yl)benzamide • V-6: 2-chloro-4-iodo-3-(methylsulfinyl)-N-(1-methyl-1H-tetrazol-5-yl)benzamide • V-7: 2-chloro-4-iodo-3-(methylsulfonyl)-N-(1-methyl-1H-tetrazol-5-yl)benzamide • V-8: 2-bromo-3-(methylsulfanyl)-N-(1-methyl-1H-tetrazol-5-yl)-4-(trifluoromethyl)benzamide • V-9: 2-bromo-3-(methylsulfinyl)-N-(1-methyl-1H-tetrazol-5-yl)-4-(trifluoromethyl)benzamide • V-10: 2-bromo-3-(methylsulfonyl)-N-(1-methyl-1H-tetrazol-5-yl)-4-(trifluoromethyl)benzamide • V-11: 2-bromo-3-(ethylsulfanyl)-N-(1-methyl-1H-tetrazol-5-yl)-4-(trifluoromethyl)benzamide • V-12: 2-bromo-3-(ethylsulfinyl)-N-(1-methyl-1H-tetrazol-5-yl)-4-(trifluoromethyl)benzamide • V-13: 2-bromo-3-(ethylsulfonyl)-N-(1-methyl-1-1H-tetrazol-5-yl)-4-(trifluoromethyl)benzamide • V-14: 2-cyclopropyl-3-(ethylsulfanyl)-N-(1-methyl-1H-tetrazol-5-yl)-4-(trifluoromethyl)benzamide Herbicidal Pre-Emergence Action: […]

Matricaria inodora [2] = experiment: Pre-emergence herbicidal action, MATIN; conditions: dosage 320 g/ha
From the text: as §1

Amaranthus retroflexus [3] = experiment: Post-emergence herbicidal action, AMARE; parameters: key: % herbicidal action vs untreated; 100 = plants died, 0 = like control; conditions: for herbicidal action AMARE: Dosage 80 g/ha; for Herbicidal action against AMARE: post-emergence, dosage 80 g/ha
Method: (§2) [table] 2. Post-Emergence Herbicidal Action Against Harmful Plants Seeds of monocotyledonous and dicotyledonous weed and crop plants are laid out in sandy loam soil in wood-fiber pots, covered with soil and cultivated in a greenhouse under good growth conditions. 2 to 3 weeks after sowing, the test plants are treated at the one-leaf stage. The compounds of the invention, formulated in the form of wettable powders (WP) or as emulsion concentrates (EC), are then sprayed onto the green parts of the plants in the form of an aqueous suspension or emulsion at a water application rate equating to 600 to 800 l/ha, with addition of 0.2% wetting agent. After the test plants have been left to stand in the greenhouse under optimal growth conditions for about 3 weeks, the action of the preparations is assessed visually in comparison to untreated controls (herbicidal action in percent (%): 100% activity=the plants have died, 0% activity=like control plants). […] The tables below illustrate, in an exemplary manner, the post-emergence herbicidal action of the compounds according to the invention, the herbicidal activity being stated in percent. In the experiments that follow, herbicidal action of numerous inventive compounds and the known compounds that are structurally closest from D1 (WO 2012/028579 A1) and D2 (WO 2018/202535 A1) were compared under the above-specified conditions by the pre-emergence and post-emergence method. The example numbers given in the tables relate to the compounds disclosed in the respective documents. In addition to the compounds disclosed in D1 and D2, the following compounds V-1 to V-14 that are encompassed by D1 or D2 but are not compounds specified therein were used in the comparative experiments: • V-1: 2-(methylsulfanyl)-3-(methylsulfinyl)-N-(1-methyl-1H-tetrazol-5-yl)-4-(trifluoromethyl)benzamide • V-2: 2-(methylsulfanyl)-3-(methylsulfonyl)-N-(1-methyl-1H-tetrazol-5-yl)-4-(trifluoromethyl)benzamide • V-3: 2,3-bis(ethylsulfanyl)-N-(1-methyl-1H-tetrazol-5-yl)-4-(trifluoromethyl)benzamide • V-4: 2-chloro-3-(ethylsulfanyl)-N-(1-methyl-1H-tetrazol-5-yl)-4-(trifluoromethyl)benzamide • V-5: 2-chloro-4-iodo-3-(methylsulfanyl)-N-(1-methyl-1H-tetrazol-5-yl)benzamide • V-6: 2-chloro-4-iodo-3-(methylsulfinyl)-N-(1-methyl-1H-tetrazol-5-yl)benzamide • V-7: 2-chloro-4-iodo-3-(methylsulfonyl)-N-(1-methyl-1H-tetrazol-5-yl)benzamide • V-8: 2-bromo-3-(methylsulfanyl)-N-(1-methyl-1H-tetrazol-5-yl)-4-(trifluoromethyl)benzamide • V-9: 2-bromo-3-(methylsulfinyl)-N-(1-methyl-1H-tetrazol-5-yl)-4-(trifluoromethyl)benzamide • V-10: 2-bromo-3-(methylsulfonyl)-N-(1-methyl-1H-tetrazol-5-yl)-4-(trifluoromethyl)benzamide • V-11: 2-bromo-3-(ethylsulfanyl)-N-(1-methyl-1H-tetrazol-5-yl)-4-(trifluoromethyl)benzamide • V-12: 2-bromo-3-(ethylsulfinyl)-N-(1-methyl-1H-tetrazol-5-yl)-4-(trifluoromethyl)benzamide • V-13: 2-bromo-3-(ethylsulfonyl)-N-(1-methyl-1-1H-tetrazol-5-yl)-4-(trifluoromethyl)benzamide • V-14: 2-cyclopropyl-3-(ethylsulfanyl)-N-(1-methyl-1H-tetrazol-5-yl)-4-(trifluoromethyl)benzamide Herbicidal Pre-Emergence Action: […]

Viola tricolor [4] = experiment: Post-emergence herbicidal action, VIOTR; parameters: key: % herbicidal action vs untreated; 100 = plants died, 0 = like control; conditions: for herbicidal action VIOTR: Dosage 80 g/ha; for Herbicidal action against VIOTR: post-emergence
Method: as §2

Pharbitis purpurea = experiment: Post-emergence herbicidal action, PHBPU; conditions: for herbicidal action PHBPU: Dosage 80 g/ha; for Herbicidal action against PHBPU: post-emergence, dosage 80 g/ha
Method: as §2

Abutilon theophrasti [5] = experiment: Post-emergence herbicidal action, ABUTH; parameters: key: % herbicidal action vs untreated; 100 = plants died, 0 = like control; conditions: for herbicidal action ABUTH: Dosage 80 g/ha; for Herbicidal action against ABUTH: post-emergence, dosage 80 g/ha
Method: as §2

Setaria viridis = experiment: Post-emergence herbicidal action, SETVI; parameters: key: % herbicidal action vs untreated; 100 = plants died, 0 = like control; conditions: for herbicidal action SETVI: Dosage 80 g/ha; for Herbicidal action against SETVI: post-emergence, dosage 80 g/ha
Method: as §2

Stellaria media = experiment: Post-emergence herbicidal action, STEME; parameters: key: % herbicidal action vs untreated; 100 = plants died, 0 = like control; conditions: for herbicidal action STEME: Dosage 80 g/ha; for Herbicidal action against STEME: post-emergence, dosage 80 g/ha
Method: as §2

Matricaria inodora [6] = experiment: Post-emergence herbicidal action, MATIN; parameters: key: % herbicidal action vs untreated; 100 = plants died, 0 = like control; conditions: for herbicidal action MATIN: Dosage 80 g/ha; for Herbicidal action against MATIN: post-emergence, dosage 80 g/ha
Method: as §2

Viola tricolor [7] = experiment: Pre-emergence herbicidal action, VIOTR; parameters: key to Herbicidal action against VIOTR: % activity: 100 = plants have died, 0 = like control plants; conditions: for herbicidal action VIOTR: dosage 320 g/ha
From the text: as §1

Echinochloa crus-galli [8] = experiment: Post-emergence herbicidal action, ECHCG; parameters: key: % herbicidal action vs untreated; 100 = plants died, 0 = like control; conditions: for herbicidal action ECHCG: Dosage 80 g/ha; for Herbicidal action against ECHCG: post-emergence, dosage 80 g/ha
Method: as §2

Veronica persica [9] = experiment: Post-emergence herbicidal action, VERPE; parameters: key: % herbicidal action vs untreated; 100 = plants died, 0 = like control; conditions: for herbicidal action VERPE: Dosage 80 g/ha; for Herbicidal action against VERPE: post-emergence, dosage 80 g/ha
Method: as §2

Abutilon theophrasti [10] = experiment: Pre-emergence herbicidal action, ABUTH; conditions: dosage 320 g/ha
From the text: as §1

Veronica persica [11] = experiment: Pre-emergence herbicidal action, VERPE; conditions: dosage 320 g/ha
From the text: as §1

Echinochloa crus-galli [12] = experiment: Pre-emergence herbicidal action, ECHCG; conditions: dosage 320 g/ha
From the text: as §1

[13] = comparative experiment, 20 g of a.i./ha

Structure (SMILES) | herbicidal action AMARE (Amaranthus retroflexus [1]) [%] | herbicidal action MATIN (Matricaria inodora [2]) [%] | herbicidal action VIOTR (Viola tricolor [7]) [%] | herbicidal action ABUTH (Abutilon theophrasti [10]) [%] | herbicidal action VERPE (Veronica persica [11]) [%] | Herbicidal action against AMARE (Amaranthus retroflexus [3]) | Herbicidal action against VIOTR (Viola tricolor [4]; dosage 80 g/ha) | Herbicidal action against PHBPU (Pharbitis purpurea) | Herbicidal action against ABUTH (Abutilon theophrasti [5]) | herbicidal action ECHCG (Echinochloa crus-galli [12]) [%] | Herbicidal action against ECHCG (Echinochloa crus-galli [8]) | Herbicidal action against VERPE (Veronica persica [9]) | also measured
CSCc1c(S(C)(=O)=O)ccc(C(=O)Nc2nnnn2C)c1C [Example 1-37] | 100 | 80 | 100 | 80 | 90 |  |  |  |  |  |  |  | herbicidal action AMARE (Amaranthus retroflexus [3]): 100; herbicidal action VIOTR (Viola tricolor [4]): 100; herbicidal action PHBPU (Pharbitis purpurea): 90; herbicidal action ABUTH (Abutilon theophrasti [5]): 90; herbicidal action SETVI (Setaria viridis): 100; herbicidal action STEME (Stellaria media): 100; herbicidal action MATIN (Matricaria inodora [6]): 80; herbicidal action ECHCG (Echinochloa crus-galli [8]): 100; herbicidal action VERPE (Veronica persica [9]): 100
Cc1c(C(=O)Nc2nnnn2C)ccc(Cl)c1C[S+](C)[O-] (stereo not shown) [Example 1-47] |  |  |  |  |  |  |  |  |  |  |  |  | Herbicidal action against AMARE (Amaranthus retroflexus [1]; [13]): 80; Herbicidal action against VIOTR (Viola tricolor [7]; [13]): 30
Cn1nnnc1NC(=O)c1ccc(C(F)(F)F)c(CS(C)(=O)=O)c1S(C)(=O)=O [Example 1-199] | 90 | 90 |  |  | 100 | 80 | 90 | 80 | 90 | 90 | 80 | 80 | Herbicidal action against STEME (Stellaria media): 90
COc1c(C(=O)Nc2nnnn2C)ccc(Cl)c1C[S+](C)[O-] (stereo not shown) [Example 1-571] | 90 |  |  | 100 | 80 |  |  |  |  |  |  |  | herbicidal action AMARE (Amaranthus retroflexus [3]): 80; herbicidal action VIOTR (Viola tricolor [4]): 80; herbicidal action PHBPU (Pharbitis purpurea): 90; herbicidal action ABUTH (Abutilon theophrasti [5]): 80; herbicidal action SETVI (Setaria viridis): 80; herbicidal action STEME (Stellaria media): 100; herbicidal action MATIN (Matricaria inodora [6]): 80; herbicidal action ECHCG (Echinochloa crus-galli [8]): 90; herbicidal action VERPE (Veronica persica [9]): 90
COc1c(C(=O)Nc2nnnn2C)ccc(Cl)c1CS(C)(=O)=O [Example 1-572] | 100 |  |  | 80 | 80 | 90 | 80 | 80 | 80 | 80 | 90 | 90 | Herbicidal action against VIOTR (Viola tricolor [4]; comparative experiment, 5 g of a.i./ha): 50; Herbicidal action against SETVI (Setaria viridis): 80
CCCn1nnnc1NC(=O)c1ccc(C(F)F)c(CS(C)(=O)=O)c1C [Example 3-109] | 100 | 100 | 100 | 100 | 90 | 100 | 100 | 90 |  | 100 | 90 | 100 | Herbicidal action against SETVI (Setaria viridis): 90; Herbicidal action against STEME (Stellaria media): 100; Herbicidal action against MATIN (Matricaria inodora [6]): 100
CCCn1nnnc1NC(=O)c1ccc(I)c(CSC)c1Cl [Example 3-362] |  |  | 80 |  |  | 80 |  |  | 80 |  | 80 |  | Herbicidal action against MATIN (Matricaria inodora [6]): 90

— patent publication US12492173B2, “Herbicidal substituted N-tetrazolyl aryl carboxamides” (Bayer Aktiengesellschaft, priority 2019, dated 2025)
